Entries after “also recorded” stand apart in the source; their conditions may differ.
Experiments:
V. harveyi BB120 strain = assay: Bioluminescence modulation in V. harveyi; type: cell-based, Vibrio harveyi; conditions: for QS activation (bioluminescence, ΔLUM normalized by OD600): concentration range 10-200 PM
Description: FIGS. 19A-C depict QS activity in different systems. FIG. 19A is a graph showing activity of doscadenamide A (1a) in E. coli reporter gene assay using pSB1075 (wild-type) and point mutants (Y56F, W60F and D73N). […] C12 was used as the positive control. […] AI-1 is a reported quorum sensing autoinducer and was used as the positive control.
Bioluminescent V. harveyi BB120 strain (wild-ype) was cultivated in AB media overnight (15-16 h) at 30° C. (OD600 is about 2.0-2.5). The overnight cultivated strain […] was diluted to 10 mL by AB media (OD600<0.1). 100 μL the diluted BB120 strain was distributed to each well of 96-well white plate. The solution of each tested compound in DMSO (0.5 μL) at different concentration was added to BB120 cultures on plate. Triplicate was conducted for each compound and each concentration. After addition, bacterial cultures were incubated at 30° C. for 7 hours. Then the emitted luminescence and OD600 was measured by BioTek Synergy H1 plate reader. AI-1 and DMSO were used as positive control and negative control, respectively.

wild-type P. aeruginosa = assay: Pyocyanin production in wild-type P. aeruginosa; type: cell-based, Pseudomonas aeruginosa; conditions: 10 PM, 6 h shaking at 37° C.
Description: Data are presented as mean±SD, **P<0.01, ****P<0.0001, compared to solvent control using one-way ANOVA (n=3).
(§1) Lett. 1998, 163 (2), 185-192]. […] 2011, 7 (4), 1205-1216]. To validate the activating activity of 1a, its effect on wild-type P. aeruginosa was tested. […] For comparison, the other three diastereomers 1b, 1c and 1d were also included in the test. Such superagonists are expected to artificially regulate virulence factor production such as pyocyanin and activate QS at lower bacterial cell populations, thus to stimulate the host immune system to clear the infection when fewer bacterial cells are present [Galloway, W.; Hodgkinson, J.; Bovvden, S.; Welch, M.; Spring, D., Trends Microbiol. 2012, 20 (9), 449-458].

PARP = assay: Western blot of PARP cleavage in MDA-MB-231 cells with TRAIL; type: cell-based; conditions: MDA-MB-231, TRAIL 20 ng/mL, compound 50 μM (FIG. 20E)
MDA-MB-231 cells = assay: MDA-MB-231 cell viability (MTT) with TRAIL, synergy evaluation; conditions: for cell viability after pretreatment and TRAIL co-treatment: 3 h pretreatment (5 μM, 2 μM); for cell viability after pretreatment and TRAIL co-treatment / synergistic effect with TRAIL / sensitization (Bliss independence): then TRAIL 20 ng/mL for 24 h; for synergistic effect with TRAIL / sensitization (Bliss independence): 3 h pretreatment; for cytotoxicity compared to doscadenamide A (1a): MDA-MB-231
Description: MDA-MB-231 cell viability after 3 h pretreatment with DMSO (solvent control), C12 as well as doscadenamide A (1a) and its structural analogs, B) 5 μM and C) 2 μM followed by combined TRAIL (20 ng/mL) treatment for 24 h. […] MDA-MB-231 cells were treated with doscadenamide A (1a) and its structural analogs for 3 h, followed by treatment with TRAIL (20 ng/mL) for 24 h, C12 was included as positive control. “A Bliss independence” is the difference between observed growth inhibition and Bliss expectation. Values greater than zero represent a synergistic response, represented as red in the figure. Bliss expectation is C=(A+B)−(A×B), where A and B are the growth inhibition fractions of two compounds at a given dose. Cell viability was quantified using MTT assay.
MDA-MB-231 cells were pretreated with C12, doscadenamides or solvent control for 3 h and then stimulated with TRAIL for 24 h (FIGS. 20B and 20C). We measured cell viability and calculated the A Bliss independence of each compound with TRAIL.

[1] = system: P. aeruginosa mutant PAO-JP1; assay: Pyocyanin quantification in P. aeruginosa strain PAO-JP1; type: cell-based, Pseudomonas aeruginosa; conditions: PAO-JP1, 6 h
Description: To follow up our previous study regarding the QS modulatory activity of doscadenamide A (1a) on wild-type P. aeruginosa and extend reporter gene assay studies, we examined the QS activation of different doscadenamides using a QS system deficient strain, PAO-JP1. PAO-JP1 is a P. aeruginosa mutant with a lasl deletion that cannot produce C12. […]
[…] The culture was then spun down for 10 min at the maximum speed, and the supernatant was collected and filtered using […] Eppendorf filters. 500 μL of the sterile supernatant were added to 500 μL CHCl3 in an Eppendorf tube. Tube shaking allowed for the extraction of pyocyanin in the CHCl3 layer. This layer was then added to 150 μL of 0.2 N HCl in another Eppendorf tube. After shaking, the aqueous layer and the organic layer were separated. 100 μL of the aqueous layer were transferred to a clear bottomed 384-well plate and the absorbance was measured at […] to quantify the pyocyanin production. Data was analyzed using GraphPad Prism 5 software.

[2] = system: pTIM5319 (lacks the AHL-binding site LasR); assay: Related reporter pTIM5319 lacking a functional AHL-binding domain; type: cell-based; conditions: E. coli, 37° C., 6 h
Description: (§2) FIG. 16. depicts activating activity of doscadenamide A (1a) in related reporter pTIM5319, which lacks a functional AHL-binding domain. The bacterial cultures were treated with 1a in a dose-response manner and solvent control at 37° C. for 6 h before fluorescence was measured. Results are expressed as fold activation compared to solvent control. Data are presented as mean±SD, **P<0.01, ****P<0.0001, compared to solvent control using one-way ANOVA (n=3).
as §1
Doscadenamide A (1a) activates QS, which was established using the 3-oxo-C12-HSL-responsive reporter plasmid pSB1075, a plasmid encoding LasR (the C12 HSL receptor in Pseudomonas aeruginosa) and containing a light-producing luxCDABE cassette expressed in Escherichia coli. […]

LasR [3] = target: T1, LasR (Pseudomonas aeruginosa, UniProt P25084); assay: Quorum sensing reporter assay, pSB1075 (lasR-luxCDABE) expressed in E. coli; type: cell-based; design: expressed in transfected cells; host or cells: Escherichia coli carrying plasmid pSB1075; conditions: 37° C., 6 h, dose-response, vs solvent control
Description: as §2, with “15.” for “16.”, “pSB1075, the lasR-luxCDABE” for “related”, “constructs expressed in E. coli.” for “pTIM5319, which lacks a functional AHL-binding domain.”
as §1, with “449-458]. […]” for “449-458].”
Doscadenamide A (1a) in a dose-response manner and EtOH control were added to the corresponding wells in a 96-well plate and the solvent was allowed to evaporate. […] The plate was incubated at 37° C. for 6 h before the measurement of luminescence.

cancer cells = conditions: cited from earlier work
LasR [4] = target: T1, LasR; conditions: cited from earlier work

T1 sequence (P25084 whole entry, the tested form may be a part): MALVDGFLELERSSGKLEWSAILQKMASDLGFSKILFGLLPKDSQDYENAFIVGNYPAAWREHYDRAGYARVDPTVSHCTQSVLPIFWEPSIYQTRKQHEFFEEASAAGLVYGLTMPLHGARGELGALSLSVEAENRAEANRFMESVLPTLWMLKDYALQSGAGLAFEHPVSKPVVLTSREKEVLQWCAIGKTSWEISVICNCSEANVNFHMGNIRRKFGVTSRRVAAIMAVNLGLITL

| Molecule | QS activation (bioluminescence, ΔLUM normalized by OD600) (V. harveyi BB120 strain) | synergistic effect with TRAIL / sensitization (Bliss independence) (MDA-MB-231 cells) | QS activation (pyocyanin production normalized for cell number) ([1]; 100 μM) [fold] | cytotoxicity compared to doscadenamide A (1a) (MDA-MB-231 cells) | also measured |
| --- | --- | --- | --- | --- | --- |
| C#CCCCC[C@@H](C)C(=O)NCCCC[C@H]1C(OC)=CC(=O)N1C(=O)[C@H](C)CCCCC#C [Compound 1a, (R)-N-(4-((S)-3-methoxy-1-((R)-2-methyloct-7-ynoyl)-5-oxo-2,5-dihydro-1H-pyrrol-2-yl)butyl)-2-methyloct-7-ynamide] | activating across the concentration range tested | can effectively improve TRAIL-induced apoptosis | 3 | – | production of QS pigment pyocyanin / QS modulation (wild-type P. aeruginosa): elevated; PARP cleavage (Western blot) (PARP): evident presence of cleaved PARP; cell viability after pretreatment and TRAIL co-treatment (MDA-MB-231 cells): clear decrease in cell viability; activation of related reporter pTIM5319 [2]: abolished; activation of 3-oxo-C12-HSL-responsive reporter plasmid pSB1075 (QS activation) (LasR [3]): can activate; also recorded: activates QS |
| C=CCCCC[C@@H](C)C(=O)NCCCC[C@H]1C(OC)=CC(=O)N1C(=O)[C@H](C)CCCCC=C [Compound 1f, Doscadenamide F] | – | – | – | improved cytoxicity | QS activating activity at <100 μM (V. harveyi BB120 strain): reduced |
| C#CCCCCCC(=O)NCCCC[C@H]1C(OC)=CC(=O)N1C(=O)[C@H](C)CCCCC#C [Compound 1j, Doscadenamide J] | – | – | – | – | QS activating activity at <100 μM (V. harveyi BB120 strain): reduced |
| CCCCCC[C@@H](C)C(=O)NCCCC[C@H]1C(OC)=CC(=O)N1C(=O)[C@H](C)CCCCCC [Compound 1k, Doscadenamide S4] | – | best agents to sensitize MDA-MB-231 cells | – | improved cytoxicity | – |
| C#CCCCC[C@@H](C)C(=O)NCCCC[C@@H]1NC(=O)C=C1OC [Compound 2a, Doscadenamide S8] | consistently inhibited QS signaling | synergistic effect with TRAIL, except 2a | – | – | PARP cleavage (Western blot) (PARP): no effect; cell viability after pretreatment and TRAIL co-treatment (MDA-MB-231 cells): no effect on cell viability; QS activation (pyocyanin production) without normalization for bacterial cell count [1]: did not show any level of activation; QS-activating effect (pyocyanin production normalized for cell number), in words ([1]; 100 μM): minimal QS-activating effect; also recorded: essentially inactive |
| C#CCCCC[C@@H](C)C(=O)N1C(=O)C=C(OC)[C@@H]1CCCCNC(=O)OC(C)(C)C [Compound 3a, Doscadenamide S10] | activating across the concentration range tested | – | 3 | – | – |
| C=CCCCC[C@@H](C)C(=O)N1C(=O)C=C(OC)[C@@H]1CCCCNC(=O)OC(C)(C)C [Compound 3b, Doscadenamide S11] | – | – | 4 | improved cytoxicity | – |
| CCCCCC[C@@H](C)C(=O)N1C(=O)C=C(OC)[C@@H]1CCCCNC(=O)OC(C)(C)C [Compound 3c, Doscadenamide S12] | only had a minor activating trend | best agents to sensitize MDA-MB-231 cells | 5 | improved cytoxicity | cell viability after pretreatment and TRAIL co-treatment (MDA-MB-231 cells): enhanced activity |
| CCCCCCCCCC(=O)CC(=O)N[C@H]1CCOC1=O [Compound C12, reference compound] | – | – | ~3 | – | synergistic effect on TRAIL-induced apoptosis reported in the literature (cancer cells): synergistic effect on TRAIL-induced apoptosis |
| CCCCCCC[C@@H]1C[C@H]1CCC(=O)O [lyngbyoic acid] | – | – | – | – | LasR / quorum sensing modulation reported in the literature (LasR [4]): strongly inhibit the activity of LasR |
| C=C(CCCCC)CCCC(=O)O [pitinoic acid A] | – | – | – | – | LasR / quorum sensing modulation reported in the literature (LasR [4]): P. aeruginosa quorum sensing inhibitor |
| TRAIL: tumor necrosis factor-related apoptosis-inducing ligand, a TNF family cytokine | – | – | – | – | fraction of cells undergoing apoptotic death (MDA-MB-231 cells; MDA-MB-231, TRAIL alone 20 ng/mL): approximately 20%; cell viability remaining (MDA-MB-231 cells; MDA-MB-231, TRAIL alone 500 ng/mL): 50% |
